{"source": "patent US7632865B2", "about": "“Thioamides and salts thereof and cytokine production inhibitors containing both” (Ishihara Sangyo Kaisha, Ltd., priority 2004, dated 2009)", "data": [{"units": {"melting point": "°C"}, "values": [{"molecule": "O=[N+]([O-])c1ccc(Cl)c(C(=S)Nc2ccc(Oc3ncc(C(F)(F)F)cc3Cl)cc2F)c1", "note": "[Compound No. 11, N-(4-(3-chloro-5-trifluoromethyl-2-pyridyloxy)-2-fluorophenyl)-2-chloro-5-nitrothiobenzamide]", "melting point": 193}, {"molecule": "COc1cc(OC)nc(OCCCNC(=S)c2cc([N+](=O)[O-])ccc2Cl)n1", "note": "[Compound No. 18, N-(3-(4,6-dimethoxy-2-pyrimidinyloxy)propyl)-2-chloro-5-nitrothiobenzamide]", "melting point": "119 to 120"}, {"molecule": "FC(F)(F)c1cnc(Oc2ccc(NC(=S)c3cnc(Cl)cc3Cl)cc2)c(Cl)c1", "note": "[Compound No. 13, N-(4-(3-chloro-5-trifluoromethyl-2-pyridyloxy)phenyl)-4,6-dichlorothionicotinamide]", "melting point": "175 to 176"}, {"molecule": "O=[N+]([O-])c1ccc(Cl)c(C(=S)Nc2ccc(Sc3ncc(C(F)(F)F)cc3Cl)cc2)c1", "note": "[Compound No. 5, N-(4-(3-chloro-5-trifluoromethyl-2-pyridylthio)phenyl)-2-chloro-5-nitrothiobenzamide]", "melting point": "72 to 73"}, {"molecule": "N#Cc1ccc(Cl)c(C(=S)Nc2ccc(Oc3ncc(C(F)(F)F)cc3Cl)c(-n3cccc3)c2)c1", "note": "[Compound No. 17, N-(4-(3-chloro-5-trifluoromethyl-2-pyridyloxy)-3-(1H-pyrrol-1-yl)phenyl)-2-chloro-5-cyanothiobenzamide]", "melting point": "229 to 230"}, {"molecule": "O=[N+]([O-])c1ccc(F)c(C(=S)Nc2ccc(Oc3ncc(C(F)(F)F)cc3Cl)cc2F)c1", "note": "[Compound No. 12, N-(4-(3-chloro-5-trifluoromethyl-2-pyridyloxy)-2-fluorophenyl)-2-fluoro-5-nitrothiobenzamide]", "melting point": "146 to 147"}, {"molecule": "CN(C)c1cc(C(F)(F)F)cc(OCCCNC(=S)c2cc([N+](=O)[O-])ccc2Cl)n1", "note": "[Compound No. 8, N-(3-(6-dimethylamino-4-trifluoromethyl-2-pyridyloxy)propyl)-2-chloro-5-nitrothiobenzamide]", "melting point": "102 to 103"}, {"molecule": "O=[N+]([O-])c1ccc(Cl)c(C(=S)Nc2ccc(Nc3ncc(C(F)(F)F)cc3Cl)cc2)c1", "note": "[Compound No. 6, N-(4-(3-chloro-5-trifluoromethyl-2-pyridylamino)phenyl)-2-chloro-5-nitrothiobenzamide]", "melting point": "199 to 200"}, {"molecule": "O=[N+]([O-])c1ccc(Cl)c(C(=S)NCCCOc2cc(C(F)(F)F)cc(N3CCSCC3)n2)c1", "note": "[Compound No. 4, N-(3-(6-thiomorpholino-4-trifluoromethyl-2-pyridyloxy)propyl)-2-chloro-5-nitrothiobenzamide]", "melting point": "132 to 133"}, {"molecule": "O=[N+]([O-])c1ccc(Cl)c(C(=S)Nc2ccc(Oc3ncc(C(F)(F)F)cc3Cl)cc2)c1", "note": "[Compound No. 1, N-(4-(3-chloro-5-trifluoromethyl-2-pyridyloxy)phenyl)-2-chloro-5-nitrothiobenzamide]", "melting point": "186 to 187"}, {"molecule": "O=[N+]([O-])c1ccc(Cl)c(C(=S)Nc2ccc(Oc3cc(C(F)(F)F)cc(Cl)n3)cc2)c1", "note": "[Compound No. 2, N-(4-(6-chloro-4-trifluoromethyl-2-pyridyloxy)phenyl)-2-chloro-5-nitrothiobenzamide]", "melting point": "186 to 187"}, {"molecule": "O=[N+]([O-])c1ccc(Cl)c(C(=S)Nc2ccc(Sc3cc(C(F)(F)F)cc(Cl)n3)cc2)c1", "note": "[Compound No. 7, N-(4-(6-chloro-4-trifluoromethyl-2-pyridylthio)phenyl)-2-chloro-5-nitrothiobenzamide]", "melting point": "183 to 186"}, {"molecule": "CN(C)c1cc(C(F)(F)F)cc(OCCCNC(=S)c2cc([N+](=O)[O-])ccc2F)n1", "note": "[Compound No. 16, N-(3-(6-dimethylamino-4-trifluoromethyl-2-pyridyloxy)propyl)-2-fluoro-5-nitrothiobenzamide]", "melting point": "130 to 133"}, {"molecule": "COc1cc(OC)nc(Oc2ccc(NC(=S)c3cc([N+](=O)[O-])ccc3Cl)cc2)n1", "note": "[Compound No. 19, N-(4-(4,6-dimethoxy-2-pyrimidinyloxy)phenyl)-2-chloro-5-nitrothiobenzamide]", "melting point": "220 to 222"}]}]}
